Laboratory results reported in patent US8758816B2, “Compositions comprising azelastine and methods of use thereof” (priority 2004, dated 2014).

Tested on: patients with seasonal allergic rhinitis (SAR)
Test: MP 428 two-week randomized double-blind study: Total Nasal Symptom Score (TNSS), change from baseline
Type: in vivo, human
Parameters: key to Change from Baseline in AM TNSS, Mean / Change from Baseline in AM TNSS, LS Mean / Change from Baseline in AM TNSS, Median: TNSS sum of 4 symptoms each 0-3 (0=none, 3=severe); change from baseline
Description: A two-week, randomized, double-blind study, which evaluated the effects of the co-administration of ASTELIN® (azelastine hydrochloride (HCl)) and FLONASE® (fluticasone propionate) compared to either product alone in patients with seasonal allergic rhinitis (SAR) was conducted during the 2006 Texas mountain cedar season. After a 5-day placebo lead-in period, 151 patients with moderate-to-severe allergic rhinitis symptoms were randomized to either: (1) (49 total patients) ASTELIN® (azelastine hydrochloride (HCl)) plus placebo saline nasal spray 2 sprays per nostril, 15 minutes apart, twice daily (AM & PM); (2) (50 total patients) FLONASE® (fluticasone propionate) plus placebo saline nasal spray, 2 sprays per nostril, 15 minutes apart, once daily (AM) and two sessions of placebo saline nasal spray, 2 sprays per nostril, 15 minutes apart (PM); or (3) (52 total patients) the co-administration of ASTELIN® (azelastine hydrochloride (HCl)) 2 sprays per nostril plus FLONASE® (fluticasone propionate) 2 sprays per nostril (AM), 15 minutes apart, and ASTELIN® (azelastine hydrochloride (HCl)) 2 sprays per nostril plus placebo saline nasal spray, 15 minutes apart, (PM) for a 2-week double-blind treatment period.
The primary efficacy variable was the change from baseline in the Total Nasal Symptom Score (TNSS), which comprised sneezing, itchy nose, runny nose, and nasal congestion (individual symptoms scores were assigned a value between 0 and 3, where 0=no symptoms and 3=severe symptoms). This study was not statistically designed to assess the differences between ASTELIN® and FLONASE®.

[1] = Day 2, Intent-to-Treat Population
[2] = Day 3, Intent-to-Treat Population
[3] = Day 4, Intent-to-Treat Population
[4] = Day 5, Intent-to-Treat Population

## CCC(=O)O[C@]1(C(=O)SCF)[C@H](C)C[C@H]2[C@@H]3C[C@H](F)C4=CC(=O)C=C[C@]4(C)[C@@]3(F)[C@@H](O)C[C@@]21C [Fluticasone, fluticasone propionate]
All Randomized Patients
  Primary Reason for Discontinuation From Study: Treatment Failure: 1 (2.0) N (%)
[1]
  Change from Baseline in AM TNSS, LS Mean: −1.58
  Change from Baseline in AM TNSS, Mean: −1.65
  Change from Baseline in AM TNSS, Median: −1.00
  Change from Baseline in AM and PM Combined TNSS, Mean: −3.24
  Change from Baseline in AM and PM Combined TNSS, Median: −2.00
  Change from Baseline in PM TNSS, LS Mean: −1.54
  Change from Baseline in PM TNSS, Mean: −1.59
  Change from Baseline in PM TNSS, Median: −1.00
  Percent Change from Baseline in AM TNSS, LS Mean: −16.43%
  Percent Change from Baseline in AM TNSS, Mean: −17.21%
  Percent Change from Baseline in AM TNSS, Median: −11.11%
  Percent Change from Baseline in AM and PM Combined TNSS, LS Mean: −16.35%
  Percent Change from Baseline in AM and PM Combined TNSS, Mean: −16.91%
  Percent Change from Baseline in AM and PM Combined TNSS, Median: −12.46%
  Percent Change from Baseline in PM TNSS, LS Mean: −16.05%
  Percent Change from Baseline in PM TNSS, Mean: −16.52%
  Percent Change from Baseline in PM TNSS, Median: −11.11%
Day 2, Intent-to-Treat Population, ANCOVA model
  Change from Baseline in AM and PM Combined TNSS, LS Mean: −3.12
Day 2, Per-Protocol Population
  Change from Baseline in AM and PM Combined TNSS, LS Mean: −3.10
  Change from Baseline in AM and PM Combined TNSS, Mean: −3.27
  Change from Baseline in AM and PM Combined TNSS, Median: −2.00
  Percent Change from Baseline in AM and PM Combined TNSS, LS Mean: −16.38%
  Percent Change from Baseline in AM and PM Combined TNSS, Mean: −17.11%
  Percent Change from Baseline in AM and PM Combined TNSS, Median: −12.46%
[2]
  Change from Baseline in AM TNSS, LS Mean: −2.01
  Change from Baseline in AM TNSS, Mean: −2.04
  Change from Baseline in AM TNSS, Median: −1.50
  Change from Baseline in AM and PM Combined TNSS, Mean: −4.12
  Change from Baseline in AM and PM Combined TNSS, Median: −3.20
  Change from Baseline in PM TNSS, LS Mean: −2.08
  Change from Baseline in PM TNSS, Mean: −2.08
  Change from Baseline in PM TNSS, Median: −1.80
  Percent Change from Baseline in AM TNSS, LS Mean: −21.72%
  Percent Change from Baseline in AM TNSS, Mean: −22.09%
  Percent Change from Baseline in AM TNSS, Median: −14.29%
  Percent Change from Baseline in AM and PM Combined TNSS, LS Mean: −22.17%
  Percent Change from Baseline in AM and PM Combined TNSS, Mean: −22.26%
  Percent Change from Baseline in AM and PM Combined TNSS, Median: −16.67%
  Percent Change from Baseline in PM TNSS, LS Mean: −22.22%
  Percent Change from Baseline in PM TNSS, Mean: −22.28%
  Percent Change from Baseline in PM TNSS, Median: −20.00%
Day 3, Intent-to-Treat Population, ANCOVA model
  Change from Baseline in AM and PM Combined TNSS, LS Mean: −4.09
Day 3, Per-Protocol Population
  Change from Baseline in AM and PM Combined TNSS, LS Mean: −4.18
  Change from Baseline in AM and PM Combined TNSS, Mean: −4.25
  Change from Baseline in AM and PM Combined TNSS, Median: −3.47
  Percent Change from Baseline in AM and PM Combined TNSS, LS Mean: −22.68%
  Percent Change from Baseline in AM and PM Combined TNSS, Mean: −22.87%
  Percent Change from Baseline in AM and PM Combined TNSS, Median: −16.67%
[3]
  Change from Baseline in AM TNSS, LS Mean: −2.43
  Change from Baseline in AM TNSS, Mean: −2.41
  Change from Baseline in AM TNSS, Median: −2.67
  Change from Baseline in AM and PM Combined TNSS, Mean: −4.53
  Change from Baseline in AM and PM Combined TNSS, Median: −4.17
  Change from Baseline in PM TNSS, LS Mean: −2.10
  Change from Baseline in PM TNSS, Mean: −2.12
  Change from Baseline in PM TNSS, Median: −1.80
  Percent Change from Baseline in AM TNSS, LS Mean: −25.32%
  Percent Change from Baseline in AM TNSS, Mean: −25.07%
  Percent Change from Baseline in AM TNSS, Median: −27.27%
  Percent Change from Baseline in AM and PM Combined TNSS, LS Mean: −23.75%
  Percent Change from Baseline in AM and PM Combined TNSS, Mean: −23.67%
  Percent Change from Baseline in AM and PM Combined TNSS, Median: −23.60%
  Percent Change from Baseline in PM TNSS, LS Mean: −21.91%
  Percent Change from Baseline in PM TNSS, Mean: −22.22%
  Percent Change from Baseline in PM TNSS, Median: −20.00%
Day 4, Intent-to-Treat Population, ANCOVA model
  Change from Baseline in AM and PM Combined TNSS, LS Mean: −4.53
Day 4, Per-Protocol Population
  Change from Baseline in AM and PM Combined TNSS, LS Mean: −4.61
  Change from Baseline in AM and PM Combined TNSS, Mean: −4.63
  Change from Baseline in AM and PM Combined TNSS, Median: −4.17
  Percent Change from Baseline in AM and PM Combined TNSS, LS Mean: −24.10%
  Percent Change from Baseline in AM and PM Combined TNSS, Mean: −24.08%
  Percent Change from Baseline in AM and PM Combined TNSS, Median: −23.60%
[4]
  Change from Baseline in AM TNSS, LS Mean: −2.59
  Change from Baseline in AM TNSS, Mean: −2.57
  Change from Baseline in AM TNSS, Median: −2.00
  Change from Baseline in AM and PM Combined TNSS, Mean: −5.16
  Change from Baseline in AM and PM Combined TNSS, Median: −4.40
  Change from Baseline in PM TNSS, LS Mean: −2.61
  Change from Baseline in PM TNSS, Mean: −2.59
  Change from Baseline in PM TNSS, Median: −2.00
  Percent Change from Baseline in AM TNSS, LS Mean: −26.91%
  Percent Change from Baseline in AM TNSS, Mean: −26.62%
  Percent Change from Baseline in AM TNSS, Median: −19.23%
  Percent Change from Baseline in AM and PM Combined TNSS, LS Mean: −27.20%
